# Source: a melting point compilation (Tetko et al.; mined from patent text by program, amines drawn as free bases though some values may be those of a salt)
row,melting point [°C],SMILES
1,113 to 116,CS(=O)(=O)Nc1ccc(/C=C\COCCCCCCNCC(O)c2ccc(O)c(CO)c2)cc1 (stereo unspecified)
2,93 to 97,CSCC(=O)[C@H](Cc1cccs1)NC(=O)[C@H](CC(C)C)NC(=O)OCc1ccccc1
3,207 to 208,CCOC(=O)C(=O)c1c[nH]c2cc(OC)ccc12
4,264 to 268,Cc1ccc(O)c2[nH]c(Cc3cccnc3)nc12
5,128 to 130,Cc1ccccc1CNC(=O)c1ccc2n1Cc1ccccc1N(C(=O)c1ccc(-c3ccccc3C)c(C)c1)C2
6,235 to 255,COc1ccc2c(c1O)CC(C(=O)O)N(C(=O)N(C)c1ccccc1)C2 (racemic)
7,133 to 135,O=C(CCCCN1CCCC1)NNC(=O)N1Cc2ccccc2Oc2ccc(Cl)cc21
8,266 to 268,O=c1[nH]cc(Cl)c2ccc(CO)cc12
9,144 to 148,CN(C)CCN(C)C(=O)c1ccc2cc(-c3csc(N(C)S(=O)(=O)c4ccccc4)n3)c(=O)[nH]c2c1
10,219 to 220,CCOc1ccc(-c2nc(C)c(C(=O)O)s2)cc1Cl
11,108 to 109,CS(=O)(=O)c1cc(OCc2ccccc2)cs1
12,138 to 139,COc1ccc(-c2cc(Cl)c3cc(O)c(Br)cc3c2)cc1
13,198 to 199,CCN(CC)c1ccc2nc3c4ccccc4c(=Nc4cccnc4)cc-3oc2c1
14,140 to 141,CN1C(=O)C(NC(=O)CCCCc2ccccc2)N=C(N2CCCCCC2)c2ccccc21 (stereo unspecified)
15,117 to 118,O=C(Nc1ccccc1)N1CCN2C(=O)OC(c3ccccc3)(c3ccccc3)C2C1 (stereo unspecified)
16,116 to 117,COC(=O)CC1COc2cc(OCc3csc(-c4ccccc4)n3)ccc21 (stereo unspecified)
17,217 to 218,Cc1nnc(-c2ccnc(Nc3cccc(C(F)(F)F)c3)c2)o1
18,130,O=C1OC(c2ccccc2)C2CCc3cc(OCCCC(F)(F)F)ccc3N12 (stereo unspecified)
19,96 to 98,O=[N+]([O-])c1ccc(Oc2ccccc2)cc1OCc1ccccc1
20,72 to 74,O=C(O)C(=O)c1ccc(OCOc2ccccc2)cc1
21,161 to 164,CCOCc1nc2c(N)nc3cc(-n4ccccc4=O)ccc3c2n1CCCOC(C)C
22,185,COC(OC)C1CN=C(c2cc3sc(C)c(N(C)S(=O)(=O)c4cccs4)c3[nH]2)S1 (stereo unspecified)
23,254,Nc1cc(S(=O)(=O)CCO)ccc1Nc1ccc(N)c(S(=O)(=O)O)c1
24,68 to 69,CCOC(=O)C=Cc1cc(OC)c(OCc2ccccc2)c(OC)c1

row,melting point [°C],SMILES
1,127 to 128,COC(=O)c1ccc(OCCCN2C(=O)c3ccccc3C2=O)c(OC)c1
2,201 to 204,CC12CCC(=O)C=C1CCC1C2CCC2(C)C(n3cnc4ccccc43)=CCC12 (stereo unspecified)
3,103 to 110,CC(CCc1ccc(O)cc1)NCC(O)c1cccc(Cl)c1 (stereo unspecified)
4,110 to 112,CCOC(=O)C(Cc1cc2c([N+](=O)[O-])cccc2[nH]1)[N+](=O)[O-] (stereo unspecified)
5,98 to 100,COc1ccc(NC(=O)CN2CCN(c3cccc(C(F)(F)F)c3)CC2)c([N+](=O)[O-])c1
6,205 to 206,COC(=O)c1ccc(Nc2ccc([N+](=O)[O-])cc2C(=O)OC)cc1
7,48 to 51,CCC(C(=O)N(C)C)n1ccc(-c2ccccc2C)n1 (stereo unspecified)
8,259 to 262,CC(C)(C)c1ccc2c(c1)C(=O)c1ccc(C(=O)O)cc1S2(=O)=O
9,189,O=C(O)Cc1ccc2onc(-c3ccc(Cl)cc3)c2c1
10,212 to 214,CC(=O)Nc1ccc(Sc2nc(Nc3cc(C)n[nH]3)cc(-c3ccccc3C)n2)cc1
11,226 to 227,COc1cc(Cl)nnc1NS(=O)(=O)c1cccc(Cl)c1Cl
12,142 to 144,Cc1noc(NS(=O)(=O)c2ccc(F)cc2)c1Br
13,62,CC(C)(C)OC(=O)[C@@H]1C[C@H](c2ccccc2)CN1
14,234 to 240,Cc1nc(N)nc(N)c1-c1cc(NS(C)(=O)=O)ccc1Cl
15,191 to 192,COc1ccc(C(=O)Nc2ccc(Cl)cc2)cc1N
16,207 to 210,CN1C(=O)NC(Cc2c[nH]c3ccccc23)C1=O (stereo unspecified)
17,80 to 81.5,CCNC(=O)NC(=O)Nc1ccccc1
18,162 to 164,COC(=O)CCc1c[nH]c2ccccc12
19,106 to 108,CC(CNc1ccc(Cl)cc1[N+](=O)[O-])OS(C)(=O)=O (stereo unspecified)
20,175,O=Cc1c(N2CCNCC2)n(-c2ccccc2)c2ccccc12
21,180 to 181,CCOC(=O)c1sc2[nH]c(C(=O)c3ccccc3)cc2c1C
22,193 to 196,N#Cc1cnc2c(cc([N+](=O)[O-])c3nncc32)c(-c2ccccc2Cl)n1
23,129,OCCON=Cc1cnc2ccccc2c1
24,210 to 211,O=c1ccc(S(=O)(=O)c2cc3ccccc3o2)n[nH]1

# The remaining lines, values behind:
row,SMILES,melting point [°C]
1,Cn1c(=O)c(-c2ccc(Cl)cc2Cl)cc2c3cc(-c4nnc(N)s4)ccc3n(C)c21,321 to 323
2,CCC(C)(C)c1cc(C(=O)CI)cc(C(C)(C)CC)c1O,76 to 77
3,CCOC(=O)C(C(=O)O)=C1SCS1,166 to 167
4,COC(=O)CCCCCCCCCCCCCCCCCOS(=O)(=O)c1ccc(C)cc1,67.5 to 68.5
5,O=C(O)CCC(F)(F)C(F)(F)CCC(=O)O,204
6,Cc1ccc(CNc2nc(Nc3cccc(C(F)(F)F)c3)nc(OCC(F)(F)F)n2)o1,72 to 74
7,Clc1ccc(Cn2cnc3ccc(Cl)nc32)c(Cl)c1,149 to 150
8,Cc1c(CCCO)c2c(c(C)c1NC(=O)NCCO)C(c1ccc(C(C)C)cc1)CO2 (stereo unspecified),153 to 154
9,CCCCCc1cc(O)c2c(c1)OC(C)(C)[C@H]1CC=C(C(=O)NCC(O)CNC(=O)c3ccc4c(c3)C(=O)OC43c4ccc(O)cc4Oc4cc(O)ccc43)C[C@H]21 (stereo partly specified),> 330
10,CC(=O)c1c(-c2ccc(Cl)cc2)c(-c2ccc(Cl)cc2)n[nH]c1=O,267 to 269
11,CCCCS(=O)c1ccc(C#N)nc1 (stereo unspecified),54 to 55
12,Brc1cccc(Br)c1OC1C=CC(Oc2c(Br)cccc2Br)C1 (stereo unspecified),205 to 206
13,c1cc(OCC2CCCCC2)ccc1Cc1nnn[nH]1,156 to 158
14,CC(C)Oc1ccc(N)c(CC#N)n1,83 to 85
15,O=C1CCc2ccc(OCCCCN3CCN(c4cccc5c4CCCC5=O)CC3)nc2N1,169 to 170
16,CCCCn1c(=O)c2nn(S(=O)(=O)c3c(Cl)cc(Cl)cc3Cl)cc2n(CCCC)c1=O,89 to 92
17,C#CCn1c(C(F)(F)F)nc2cc(F)c(-n3c(=O)cc(C(F)(F)F)n(C)c3=O)cc21,104 to 105
18,CC(C)(C)[C@H]1CC[C@H](CCC(=O)O)CC1,105 to 107
19,CC(C)(C)OC(=O)N1CCC(C(=O)c2cccs2)CC1,154 to 156
20,CNC(=S)C1=CC(CF)(CF)Oc2ccc([N+](=O)[O-])cc21,134 to 135
21,CCCc1c(OCCCCCc2c(Cl)c(Cl)c(Cl)c(OC)c2OC)ccc(C(=O)O)c1O,148 to 150
22,Nc1nc(Nc2cccnc2)sc1C(=O)c1ccc(OC(F)F)cc1,143
23,CC1(C)CCC(C)(C)c2cc(-c3cn(-c4ccc(C(=O)O)cc4)c(S)n3)ccc21,170 to 172
24,CC(=O)c1c(-c2ccc(F)cc2)nc2occn12,173
25,Cn1c(C(F)(F)F)cc(=O)n(-c2ccc(Cl)c3c2OC(C)(C)C3=O)c1=O,177 to 178
26,CCc1c(C)c(NC(=O)CC(C)(C)C)c(C)c2c1SCC2c1ccc(C(C)C)cc1 (stereo unspecified),172 to 173
27,Oc1ccccc1-c1ccccc1-c1cccc2[pH]c3ccccc3c12 (stereo unspecified),152 to 155

row,SMILES,melting point [°C]
1,O=C(O)c1ccc([N+](=O)[O-])cc1C(F)(F)F,128 to 129
2,CCCCCCCCSc1ccc(C#N)c(C#N)c1,37 to 38
3,CS(=O)(=O)N[C@H]1CC[C@H](CCN2CCC(c3cccc4c3CCO4)CC2)CC1,152
4,CCc1nc2c(cnn2CC)c(NC2CCOCC2)c1CNC(=O)c1cc(C)cc(C(=O)NCc2ccc(OC)c(-c3cccc(CC4CCN(C)CC4)c3)c2)c1,115 to 117
5,O=C1N(c2ccc(Cl)cc2)C(Cl)(Cl)C2CCCCC12Cl (stereo unspecified),120 to 124
6,O=C1NC(=O)C2CCCC12 (stereo unspecified),89
7,O=C(/C=C/C=C/c1ccc(Cl)cc1)NCCCC(=O)NO,164 to 166
8,CCOC(=O)NNC(=O)Nc1c(F)cc(F)cc1F,177 to 178
9,CSc1cccc(NC(=O)N(O)C2CCCCC2)c1,147 to 148
10,COc1ncnc2c1C(c1cccc([N+](=O)[O-])c1)C(C(=O)OC(C)C)=C(C)N2 (stereo unspecified),212 to 213
11,C#CCn1c(C(F)(F)F)c(C(=O)OCC)oc1=O,72
12,COc1ccc(C2(O)CCN(CC3CN(c4cccc(OC)c4)C(=O)O3)CC2)cc1 (stereo unspecified),158 to 160
13,Cc1nnc2n1-c1sc(C#CCn3c(=O)c4ccccc4c4ccccc43)cc1C(c1ccccc1Cl)=NC2,247 to 249
14,C#CCN(Cc1cc2c(=O)n(CCN(C)C)c(CN3CCCCC3)nc2cc1Cl)c1ccc(C(=O)NCc2cccnc2)cc1,90 to 93
15,CN1CCN(C(=O)c2ccc(-c3cnc4c(c3)N(Cc3cc(F)c(F)cc3F)C(=O)CN4)cc2)CC1,238
16,c1ccc2c(c1)CCc1c-2noc1N1CCCNCC1,79 to 81
17,CCCc1nc(N)c(C(=O)OC)[nH]1,133 to 136
18,O=C1CCCC(O)=C1C(=O)Nc1ccc(Cl)cc1,113 to 114
19,COc1ccc(-c2nc(-c3ccc[nH]3)sc2-c2ccc(OC)cc2)cc1,132 to 134
20,N#Cc1c(Cl)c2cc(F)cnc2[nH]c1=O,272
21,CCn1c(=O)[nH]c(=O)c2nc(-c3ccc(/C=C/C(=O)O)cc3)[nH]c21,> 300
22,CSc1cc(=O)c2cc(OC(=O)OC(C)(C)C)c(OC(=O)OC(C)(C)C)cc2s1,110 to 111
23,CCCCCCCCCCOC1CCC(=O)N1 (stereo unspecified),44 to 46
24,Cc1ccc2c3c(ccc2n1)OC[C@H](CN1CCN(c2cccc4c2OCCO4)CC1)O3,154 to 155
25,CC(=O)C1(c2ccc(Br)cc2)C=CC=CC1 (stereo unspecified),126 to 128
26,Oc1cc(C(F)(F)F)ccc1-c1cc(Oc2ccc3cccnc3c2)ncn1,210 to 212
